Results published in publication PMC9853328, “Potent Platinum(IV) Prodrugs That Incorporate a Biotin Moiety to Selectively Target Cancer Cells” (Pharmaceutics, 2022).
Where two headings read alike, the source gives them in different places.

How the values were obtained:
[1] = test system: cisplatin-resistant ADDP ovarian (subclone of A2780) cancer cells; design: method as in earlier work; settings: MTT, same method, taken from the literature; ref [18],[46],[47]; read-out: GI50 ± SEM, ADDP; cited from earlier work
[2] = test system: non-cancerous MCF10A breast cell line; design: method as in earlier work; settings: MTT, same method, taken from the literature; ref [18],[46],[47]; read-out: GI50 ± SEM, MCF10A; cited from earlier work
[3] = test system: Du145 prostate cancer cells; design: method as in earlier work; settings: MTT, same method, taken from the literature; ref [18],[46],[47]; read-out: GI50 ± SEM, Du145; cited from earlier work
[4] = test system: HT29 colon cancer cells; design: method as in earlier work; settings: MTT, same method, taken from the literature; ref [18],[46],[47]; read-out: GI50 ± SEM, HT29; cited from earlier work
[5] = test system: A2780 ovarian cancer cells; design: method as in earlier work; settings: MTT, same method, taken from the literature; ref [18],[46],[47]; read-out: GI50 ± SEM, A2780; cited from earlier work
[6] = test system: H460 lung cancer cells; design: method as in earlier work; settings: MTT, same method, taken from the literature; ref [18],[46],[47]; read-out: GI50 ± SEM, H460; cited from earlier work
[7] = test system: MCF-7 breast cancer cells; design: method as in earlier work; settings: MTT, same method, taken from the literature; ref [18],[46],[47]; read-out: GI50 ± SEM, MCF-7; cited from earlier work
[8] = test system: ADDP (subclone of A2780) versus A2780 ovarian cancer cell lines; experiment: Resistance factor, GI50 in ADDP/GI50 in A2780; type: cell-based
[9] = test system: SJ-G2 glioblastoma cells; design: method as in earlier work; settings: MTT, same method, taken from the literature; ref [18],[46],[47]; read-out: GI50 ± SEM, SJ-G2; cited from earlier work
[10] = test system: U87 glioblastoma cells; design: method as in earlier work; settings: MTT, same method, taken from the literature; ref [18],[46],[47]; read-out: GI50 ± SEM, U87; cited from earlier work
[11] = test system: BE2-C neuroblastoma cells; design: method as in earlier work; settings: MTT, same method, taken from the literature; ref [18],[46],[47]; read-out: GI50 ± SEM, BE2-C; cited from earlier work
[12] = test system: A431 skin cancer cells; design: method as in earlier work; settings: MTT, same method, taken from the literature; ref [18],[46],[47]; read-out: GI50 ± SEM, A431; cited from earlier work
[13] = test system: MIA pancreas cancer cells; design: method as in earlier work; settings: MTT, same method, taken from the literature; ref [18],[46],[47]; read-out: GI50 ± SEM, MIA; cited from earlier work
[14] = test system: non-cancerous MCF10A breast cell line; experiment: MTT in vitro cytotoxicity assay, MCF10A; type: cell-based; settings: Homo sapiens, MCF-10A, 72 h drug exposure, n = 3, read-out: GI50 ± SEM, MCF10A
Experimental: (§1) The in vitro cytotoxicity assays were undertaken at Calvary Mater Hospital, Waratah, NSW, Australia, following a method previously published in the literature. A stock solution for each compound was prepared in DMSO (30 mM) and stored at −20 °C. The cell lines used in the study include HT29 colon, U87 glioblastoma, MCF-7 breast, A2780 ovarian, H460 lung, A431 skin, Du145 prostate, BE2-C neuroblastoma, SJ-G2 glioblastoma, MIA pancreas, and cisplatin-resistant ADDP ovarian (subclone of A2780) cancer cells, as well as the non-cancerous-derived MCF10A breast cell line. The cancer cell lines were cultured in a humidified atmosphere 5% CO2 at 37 °C and maintained in Dulbecco’s modified Eagle’s medium (Trace Biosciences, Sydney, Australia), supplemented with 10% foetal bovine serum, sodium bicarbonate (10 mM), penicillin (100 IU/mL), streptomycin (100 µg/mL), and glutamine (4 mM). The non-cancerous MCF10A cell line was maintained in DMEM:F12 (1:1) cell culture media, with 5% heat inactivated horse serum, supplemented with penicillin (50 IU/mL), streptomycin (50 µg/mL), glutamine (2 mM), HEPES (20 mM), epidermal growth factor (20 ng/mL), hydrocortisone (500 ng/mL), cholera toxin (100 ng/mL), and insulin (10 µg/mL). Cells were plated in duplicate in medium (100 µL) at a density of 2500–4000 cells per well in 96-well plates. On day 0, (24 h after plating) when the cells were in logarithmic growth, medium (100 μL) with or without the test agent was added to each well. The growth inhibitory effects were evaluated after 72 h drug exposure, using the MTT (3-(4,5-dimethylthiazol-2-yl)-2,5-diphenyltetrazolium bromide) assay, with the absorbance read at 540 nm. An eight-point dose–response curve was produced, which was used to determine the concentration at which growth was inhibited by 50% (GI50). This calculation was based on the difference between the optical density values on day 0 and those at the end of drug exposure. […] Experiments were conducted on three separate occasions and GI50 values were reported as the mean and standard error of the mean.

[15] = test system: cisplatin-resistant ADDP ovarian (subclone of A2780) cancer cells; experiment: MTT in vitro cytotoxicity assay, ADDP; type: cell-based; settings: Homo sapiens, A2780, 72 h drug exposure, n = 3, read-out: GI50 ± SEM, ADDP
Experimental: as §1

[16] = test system: MCF-7 breast cancer cells; experiment: MTT in vitro cytotoxicity assay, MCF-7; type: cell-based; settings: Homo sapiens, MCF7; MTT, 72 h drug exposure, n = 3; read-out: GI50 ± SEM, MCF-7
[17] = test system: SJ-G2 glioblastoma cells; experiment: MTT in vitro cytotoxicity assay, SJ-G2; type: cell-based; settings: SJ-G2, 72 h drug exposure, n = 3, read-out: GI50 ± SEM, SJ-G2
Experimental: as §1

[18] = test system: U87 glioblastoma cells; experiment: MTT in vitro cytotoxicity assay, U87; type: cell-based; settings: 72 h drug exposure, n = 3, read-out: GI50 ± SEM, U87
Experimental: as §1

[19] = test system: H460 lung cancer cells; experiment: MTT in vitro cytotoxicity assay, H460; type: cell-based; settings: Homo sapiens, NCI-H460, 72 h drug exposure, n = 3, read-out: GI50 ± SEM, H460
Experimental: as §1

[20] = test system: A2780 ovarian cancer cells; experiment: MTT in vitro cytotoxicity assay, A2780; type: cell-based; settings: Homo sapiens, A2780, 72 h drug exposure, n = 3, read-out: GI50 ± SEM, A2780
Experimental: as §1

[21] = test system: Du145 prostate cancer cells; experiment: MTT in vitro cytotoxicity assay, Du145; type: cell-based; settings: Homo sapiens, DU-145; MTT, 72 h drug exposure, n = 3; read-out: GI50 ± SEM, Du145
Experimental: as §1

[22] = test system: BE2-C neuroblastoma cells; experiment: MTT in vitro cytotoxicity assay, BE2-C; type: cell-based; settings: Homo sapiens, BE(2)-C, 72 h drug exposure, n = 3, read-out: GI50 ± SEM, BE2-C
Experimental: as §1

[23] = test system: A431 skin cancer cells; experiment: MTT in vitro cytotoxicity assay, A431; type: cell-based; settings: Homo sapiens, A-431, 72 h drug exposure, n = 3, read-out: GI50 ± SEM, A431
Experimental: as §1

[24] = test system: HT29 colon cancer cells; experiment: MTT in vitro cytotoxicity assay, HT29; type: cell-based; settings: Homo sapiens, HT-29; MTT, 72 h drug exposure, n = 3; read-out: GI50 ± SEM, HT29
Experimental: as §1

[25] = test system: MIA pancreas cancer cells; experiment: MTT in vitro cytotoxicity assay, MIA; type: cell-based; settings: 72 h drug exposure, n = 3, read-out: GI50 ± SEM, MIA
Experimental: as §1

Which GI50 [1] does the source give for `Cc1c(C)c2ccc[n+]3c2c2c1ccc[n+]2[Pt-2]31[NH2+][C@H]2CCCC[C@@H]2[NH2+]1.[Cl-].[Cl-]` [56MESS(II)] here?
The GI50 was 0.027 ± 0.0041 µM.

And the GI50 [2]?
Its GI50 is 0.025 ± 0.01 µM.

And the GI50 [3]?
The GI50 was 0.01 ± 0.0013 µM.

And the GI50 [4]?
The GI50 was 0.015 ± 0.0062 µM.

And the GI50 [5]?
The GI50 was 0.039 ± 0.0077 µM.

What about the GI50 [6] of the same compound?
The GI50 was 0.028 ± 0.0047 µM.

And the GI50 [7]?
Its GI50 is 0.033 ± 0.012 µM.

What about the “Resistance factor (RF)” value [8] of the same compound?
Its value is 0.692.

And the GI50 [9]?
The GI50 was 0.15 ± 0.0067 µM.

And the GI50 [10]?
The GI50 was 0.076 ± 0.0087 µM.

What about the GI50 [11] of the same compound?
The GI50 was 0.086 ± 0.003 µM.

And the GI50 [12]?
The GI50 was 0.036 ± 0.011 µM.

And the GI50 [13]?
Its GI50 is 0.022 ± 0.00088 µM.

For `Cc1c(C)c2ccc[n+]3c2c2c1ccc[n+]2[Pt-2]31([OH])([OH])[NH2+][C@H]2CCCC[C@@H]2[NH2+]1.O=[N+]([O-])[O-].O=[N+]([O-])[O-]` [56MESS(IV)], which GI50 [1] is on record?
The GI50 was 0.17 ± 0.12 µM.

What about the GI50 [2] of the same compound?
Its GI50 is 0.061 ± 0.0073 µM.

What about the GI50 [3] of the same compound?
The GI50 was 0.015 ± 0.0026 µM.

And the GI50 [4]?
Its GI50 is 0.036 ± 0.0071 µM.

And the GI50 [5]?
Its GI50 is 0.056 ± 0.0071 µM.

And the GI50 [6]?
The GI50 was 0.19 ± 0.15 µM.

What about the GI50 [7] of the same compound?
Its GI50 is 0.48 ± 0.14 µM.

What about the “Resistance factor (RF)” value [8] of the same compound?
The value was 3.036.

And the GI50 [9]?
The GI50 was 0.21 ± 0.045 µM.

What about the GI50 [10] of the same compound?
Its GI50 is 0.19 ± 0.023 µM.

And the GI50 [11]?
Its GI50 is 0.24 ± 0.022 µM.

What about the GI50 [12] of the same compound?
The GI50 was 0.12 ± 0.022 µM.

What about the GI50 [13] of the same compound?
The GI50 was 0.043 ± 0.0025 µM.

For `O=C(O)CCCC[C@@H]1SC[C@@H]2NC(=O)N[C@@H]21` [Biotin, biotin], which GI50 [14] is on record?
The GI50 was over 50 µM.

And the GI50 [15]?
Its GI50 is over 50 µM.

What about the GI50 [16] of the same compound?
Its GI50 is over 50 µM.

And the GI50 [17]?
Its GI50 is over 50 µM.

What about the GI50 [18] of the same compound?
The GI50 was over 50 µM.

What about the GI50 [19] of the same compound?
Its GI50 is over 50 µM.

What about the GI50 [20] of the same compound?
The GI50 was over 50 µM.

And the GI50 [21]?
The GI50 was over 50 µM.

What about the GI50 [22] of the same compound?
Its GI50 is over 50 µM.

What about the GI50 [23] of the same compound?
Its GI50 is over 50 µM.

What about the GI50 [24] of the same compound?
The GI50 was over 50 µM.

And the GI50 [25]?
The GI50 was over 50 µM.

With `N.N.O=C([O-])C1(C(=O)[O-])CCC1.[Pt+2]` [Carboplatin, carboplatin] as the compound, how does the GI50 [1] read?
The GI50 was over 50 µM.

What about the GI50 [2] of the same compound?
Its GI50 is over 50 µM.

What about the GI50 [3] of the same compound?
Its GI50 is 14.7 ± 1.2 µM.

And the GI50 [4]?
Its GI50 is over 50 µM.

And the GI50 [5]?
The GI50 was 9.2 ± 2.9 µM.

What about the GI50 [6] of the same compound?
Its GI50 is 14 ± 1 µM.

And the GI50 [7]?
Its GI50 is over 50 µM.

And the GI50 [9]?
The GI50 was 5.7 ± 0.2 µM.

What about the GI50 [10] of the same compound?
The GI50 was over 50 µM.

What about the GI50 [11] of the same compound?
The GI50 was 18.7 ± 1.2 µM.

And the GI50 [12]?
The GI50 was 24.3 ± 2.2 µM.

And the GI50 [13]?
The GI50 was over 50 µM.

With `O=C1[O][Pt]2([NH][C@@H]3CCCC[C@H]3[NH]2)[O]C1=O` [Oxaliplatin, oxaliplatin] as the compound, how does the GI50 [1] read?
Its GI50 is 0.822 ± 0.13 µM.

What about the GI50 [3] of the same compound?
The GI50 was 2.9 ± 0.4 µM.

What about the GI50 [4] of the same compound?
Its GI50 is 0.9 ± 0.2 µM.

What about the GI50 [5] of the same compound?
The GI50 was 0.16 µM.

And the GI50 [6]?
Its GI50 is 1.6 ± 0.1 µM.

What about the GI50 [7] of the same compound?
The GI50 was 0.5 ± 0.1 µM.

And the “Resistance factor (RF)” value [8]?
Its value is 5.138.

And the GI50 [9]?
Its GI50 is 3 ± 1.2 µM.

What about the GI50 [10] of the same compound?
Its GI50 is 1.8 ± 0.2 µM.

And the GI50 [11]?
The GI50 was 0.9 ± 0.2 µM.

What about the GI50 [12] of the same compound?
The GI50 was 4.1 ± 0.5 µM.

And the GI50 [13]?
Its GI50 is 0.9 ± 0.2 µM.
